Measurements from the CheMixHub viscosity set.
± gives the uncertainty stated by the source.

Test: xn = mol fraction of the nth substance listed

C1CC[NH2+]C1.CCCCCCCC(=O)[O-] + CC#N
viscosity [mPa·s], 101 kPa
Conditions	x1 = 0.1601	x1 = 0.2228	x1 = 0.2843	x1 = 0.3982	x1 = 0.4849	x1 = 0.609	x1 = 0.6946	x1 = 0.7891	x1 = 0.9081
293.15 K	5.42 ± 1.1	6.71 ± 1.3	7.22 ± 1.4	11.37 ± 2.3	13.54 ± 2.7	18.24 ± 3.7	24.41 ± 4.9	33.6 ± 6.8	51.93 ± 10
298.15 K	4.61 ± 0.92	6.42 ± 1.3	7.9 ± 1.6	9.98 ± 2	12.08 ± 2.4	16.32 ± 3.3	22.17 ± 4.5	30.5 ± 6.1	44.73 ± 9
303.15 K	3.37 ± 0.68	3.58 ± 0.72	5.31 ± 1.1	8.14 ± 1.6	9.96 ± 2	14.01 ± 2.8	17.35 ± 3.5	24.21 ± 4.9	35.95 ± 7.2
308.15 K	2.41 ± 0.48	3.39 ± 0.68	5.02 ± 1	7.88 ± 1.6	9.48 ± 1.9	13.07 ± 2.6	15.79 ± 3.2	21.95 ± 4.4	30.54 ± 6.2
313.15 K	1.92 ± 0.39	2.99 ± 0.6	4.35 ± 0.87	6.59 ± 1.3	8.46 ± 1.7	10.7 ± 2.1	14.2 ± 2.9	18.22 ± 3.7	25.69 ± 5.2

CCC(C)O (configuration not stated) + CC#N
Conditions	viscosity [mPa·s]
293.15 K, 101 kPa, x2 = 0.1644	1.655 ± 0.019

CCCCn1cc[n+](C)c1.F[B-](F)(F)F + CC#N
Conditions	viscosity [mPa·s]
298.15 K, 101 kPa, x2 = 0.0956	79.7 ± 16

Cc1ccc(O)cc1 + CC(=O)O
viscosity [mPa·s], 101 kPa
Conditions	x2 = 0.1682	x2 = 0.3128	x2 = 0.4383	x2 = 0.5483	x2 = 0.6454	x2 = 0.732	x2 = 0.8094	x2 = 0.8792	x2 = 0.9425
298.15 K	9.47 ± 0.71	6.803 ± 0.55	5.096 ± 0.44	3.918 ± 0.35	3.086 ± 0.28	2.477 ± 0.22	2.038 ± 0.19	1.664 ± 0.16	1.385 ± 0.13
308.15 K	5.756 ± 0.48	4.488 ± 0.39	3.585 ± 0.32	2.902 ± 0.26	2.385 ± 0.22	1.99 ± 0.18	1.674 ± 0.16	1.4 ± 0.13	1.18 ± 0.11
318.15 K	4.584 ± 0.4	3.69 ± 0.33	3.009 ± 0.27	2.473 ± 0.22	2.051 ± 0.19	1.72 ± 0.16	1.447 ± 0.14	1.215 ± 0.12	1.004 ± 0.099

Cc1ccccc1N + CC(=O)O
viscosity [mPa·s], 100 kPa
Conditions	x1 = 0.1051	x1 = 0.1945	x1 = 0.2862	x1 = 0.3854	x1 = 0.4952	x1 = 0.5994	x1 = 0.6874	x1 = 0.7658	x1 = 0.8879
303.15 K	1.3 ± 0.04	1.51 ± 0.05	1.73 ± 0.06	1.96 ± 0.06	2.2 ± 0.07	2.43 ± 0.08	2.62 ± 0.08	2.79 ± 0.09	3.04 ± 0.1
308.15 K	1.2 ± 0.04	1.38 ± 0.04	1.56 ± 0.05	1.75 ± 0.06	1.96 ± 0.06	2.15 ± 0.07	2.31 ± 0.07	2.44 ± 0.08	2.65 ± 0.08
313.15 K	1.11 ± 0.04	1.27 ± 0.04	1.42 ± 0.05	1.59 ± 0.05	1.76 ± 0.06	1.93 ± 0.06	2.06 ± 0.06	2.17 ± 0.07	2.34 ± 0.07
318.15 K	1.02 ± 0.03	1.15 ± 0.04	1.28 ± 0.04	1.42 ± 0.05	1.57 ± 0.05	1.7 ± 0.05	1.81 ± 0.06	1.91 ± 0.06	2.04 ± 0.06

Cc1ccc(O)cc1 + CC(=O)c1ccccc1
303.15 K, 101 kPa
Conditions	viscosity [mPa·s]
x2 = 0.1137	10.7 ± 0.25
x2 = 0.1526	10.25 ± 0.23
x2 = 0.3364	8.205 ± 0.16
x2 = 0.426	7.246 ± 0.13
x2 = 0.4932	6.538 ± 0.11
x2 = 0.5636	5.804 ± 0.089
x2 = 0.758	3.823 ± 0.046
x2 = 0.8099	3.31 ± 0.038
x2 = 0.9433	2.026 ± 0.019

Cc1cccc(C)c1 + CC(C)(C)O
308.15 K, 101 kPa
Conditions	viscosity [mPa·s]
x2 = 0.0642	0.542 ± 0.011
x2 = 0.1265	0.59 ± 0.012
x2 = 0.2068	0.633 ± 0.013
x2 = 0.3029	0.667 ± 0.014
x2 = 0.3766	0.72 ± 0.015
x2 = 0.4301	0.756 ± 0.016
x2 = 0.4992	0.793 ± 0.017
x2 = 0.5983	0.909 ± 0.019
x2 = 0.6924	1.013 ± 0.021
x2 = 0.7966	1.296 ± 0.027
x2 = 0.908	1.731 ± 0.036

Nc1ccccc1Cl + CC(C)(C)O
viscosity [mPa·s], 101 kPa
Conditions	x1 = 0.0902	x1 = 0.1802	x1 = 0.3025	x1 = 0.4125	x1 = 0.5089	x1 = 0.6158	x1 = 0.7025	x1 = 0.8054	x1 = 0.9005
303.15 K	3.13 ± 0.68	3.28 ± 0.71	3.44 ± 0.75	3.57 ± 0.78	3.66 ± 0.8	3.73 ± 0.81	3.78 ± 0.82	3.82 ± 0.83	3.84 ± 0.83
308.15 K	2.89 ± 0.63	3.03 ± 0.66	3.16 ± 0.69	3.26 ± 0.71	3.33 ± 0.72	3.39 ± 0.74	3.43 ± 0.75	3.46 ± 0.75	3.46 ± 0.75
313.15 K	2.36 ± 0.51	2.52 ± 0.55	2.68 ± 0.58	2.79 ± 0.61	2.88 ± 0.63	2.98 ± 0.65	3.03 ± 0.66	3.09 ± 0.67	3.11 ± 0.68
318.15 K	1.97 ± 0.43	2.13 ± 0.46	2.3 ± 0.5	2.42 ± 0.53	2.52 ± 0.55	2.62 ± 0.57	2.7 ± 0.59	2.77 ± 0.6	2.8 ± 0.61

O=S1(=O)CCCC1 + CC(C)(C)O
viscosity [mPa·s], 101 kPa
Conditions	x1 = 0.1916	x1 = 0.2786	x1 = 0.3584	x1 = 0.4717	x1 = 0.5569	x1 = 0.6312	x1 = 0.732	x1 = 0.8339	x1 = 0.9188
303.15 K	2.995 ± 0.037	3.12 ± 0.036	3.325 ± 0.039	3.712 ± 0.044	4.135 ± 0.049	4.595 ± 0.056	5.495 ± 0.068	6.747 ± 0.085	8.277 ± 0.11
308.15 K	2.513 ± 0.029	2.644 ± 0.031	2.844 ± 0.033	3.213 ± 0.038	3.602 ± 0.043	4.022 ± 0.048	4.832 ± 0.059	5.938 ± 0.074	7.276 ± 0.092
313.15 K	2.121 ± 0.024	2.266 ± 0.026	2.467 ± 0.029	2.806 ± 0.033	3.169 ± 0.037	3.553 ± 0.042	4.285 ± 0.051	5.264 ± 0.064	6.424 ± 0.08

Cc1cccc(C)c1 + CC(C)CC(C)(C)C
308.15 K, 101 kPa
Conditions	viscosity [mPa·s]
x2 = 0.0651	0.5188 ± 0.0054
x2 = 0.1364	0.5018 ± 0.0052
x2 = 0.2067	0.4888 ± 0.0051
x2 = 0.3021	0.4746 ± 0.005
x2 = 0.392	0.462 ± 0.0049
x2 = 0.4939	0.4518 ± 0.0048
x2 = 0.6007	0.4435 ± 0.0047
x2 = 0.7283	0.4385 ± 0.0047
x2 = 0.859	0.4352 ± 0.0047

BrC1CCCCC1 + CC(C)CO
viscosity [mPa·s], 101.33 kPa
Conditions	x1 = 0.0998	x1 = 0.2024	x1 = 0.3028	x1 = 0.3991	x1 = 0.4983	x1 = 0.5946	x1 = 0.7011	x1 = 0.8014	x1 = 0.9015
298.15 K	2.871 ± 0.022	2.496 ± 0.02	2.252 ± 0.018	2.095 ± 0.017	1.981 ± 0.017	1.915 ± 0.016	1.878 ± 0.016	1.877 ± 0.016	1.915 ± 0.017
313.15 K	1.846 ± 0.015	1.656 ± 0.013	1.539 ± 0.013	1.47 ± 0.012	1.42 ± 0.012	1.401 ± 0.012	1.399 ± 0.012	1.419 ± 0.013	1.465 ± 0.013

NCCCO + CC(C)CO
293.15 K, 101 kPa
Conditions	viscosity [mPa·s]
x1 = 0.501	13.95 ± 0.62
x1 = 0.7008	21.85 ± 0.93
